The values below come from publication PMC7998926 (Microorganisms, 2021).

Structures are written as SMILES. Values joined by “and” are separate entries in the source; they are usually repeats but may differ in a detail not shown here. Equal values may be shown once. “Also recorded” adds a separate entry of the source. Read-outs that look alike come from different tables or passages of the source. Some results are limits rather than exact numbers.

In data set [1] the test system is EBOV. As to the kind of experiment: microbe, parasite or virus in culture. In kind it is cell-based, Ebola virus. The conditions noted are these: Zaire ebolavirus, read-out: IC50 (average) (μM).
The conditions of data set [2]: human, in vivo, po, cited from earlier work.
In data set [3] the test system is EBOV/Mak. The conditions noted are these: cited from earlier work; for IC50: read-out: IC50 (Huh7).
Data set [4] deals with EBOV. The settings on record: mouse, in vivo, cited from earlier work.
Data set [5] is described as follows: in vivo. The settings on record: female, C57BL/6, mouse, po.
The conditions of data set [6]: C57BL/6, mouse, in vivo, po; for Cmax obtained relative to prediction, fold higher: female.
Data set [7] relates to EBOV. The settings on record: read-out: IC50 (HepG2); cited from earlier work.
The test system of data set [8] is EBOV/Mak. It counts as cell-based, Ebola virus.
Data set [9] deals with EBOV. Also on record: species or system Ebola virus.
Another data set concerns MARV. The settings on record: mouse, in vivo, ip, 12 mg/kg; cited from earlier work.
The conditions of data set [10]: mouse, in vivo; cited from earlier work.
The test system of another data set is VSV-EBOV-GPΔ-Luc. In kind it is cell-based.
The conditions of data set [11]: mouse, in vivo.
Another data set concerns EBOV/Mak-C05. The conditions noted are these: rhesus monkey, in vivo; cited from earlier work.
Data set [12] in a line: in vivo. The settings on record: mouse, po, 10 mg/kg.
Data set [13] relates to EBOV. Also on record: species or system mice. The conditions noted are these: mouse, in vivo.
The conditions of data set [14]: rat, in vivo; cited from earlier work.

The term IC50 denotes the concentration needed to halve the response being measured. As a reminder, the Cmax is the peak of the concentration-time curve. The MRT is a mean duration of stay, worked out from the concentration-time curve. The term half-life denotes the time in which the quantity being followed falls by half. In general, Hill coefficient refers to the slope factor of the fitted curve.

On to `Cc1cccc(/C=N/Nc2cc(N3CCOCC3)nc(OCCc3ccccn3)n2)c1` [Apilimod], for which the IC50 in the data set with EBOV [1] and with EBOV/Mak [3] was 0.17 µM each time. In addition, the highest concentration (Cmax) in data set [2] (70 mg) is 0.26 µM.
For the compound `O=C1CCc2ccc(OCCCCN3CCN(c4cccc(Cl)c4Cl)CC3)cc2N1` [Aripiprazole], in the data set on EBOV [4] (ip, 20 mg/kg), the “Survival (%)” value is on record as 10 ^1% and the “somnolence in treated mice” value is listed as “extremely somnolent”. For the same compound, the Cmax in [2] (30 mg) was 1.01 µM.
For `CC[C@H]1OC(=O)[C@H](C)[C@@H](O[C@H]2C[C@@](C)(OC)[C@@H](O)[C@H](C)O2)[C@H](C)[C@@H](O[C@@H]2O[C@H](C)C[C@H](N(C)C)[C@H]2O)[C@](C)(O)C[C@@H](C)CN(C)[C@H](C)[C@@H](O)[C@]1(C)O` [Azithromycin], the “Survival (%)” value in the data set on EBOV [4] (ip, 100 mg/kg) is listed as 10, 30, 60 ^2%. In addition, the 50% inhibitory concentration (IC50) in the data set with EBOV [1] and in the data set with EBOV/Mak [3] was 10.8 µM in each case. The Cmax in data set [2] (500 mg) is 0.64 µM.
In the data set “in vivo [5]” (150 mg/kg), `CC(C)COCC(CN(Cc1ccccc1)c1ccccc1)N1CCCC1` (stereo not drawn) [Bepridil] had a mean residence time MRT of 6 h and a half-life of 0.5 h. In “in vivo [5]” (500 mg/kg), the MRT came to 9 h and the half-life is 0.5 h. Also, in data set [6], the Cmax is roughly 3 µM and the “Cmax obtained relative to prediction, fold higher” value was ~ 1.8 fold. For the same compound, the IC50 in the data set with EBOV [7] was 3.21 µM. In addition, in the data set with EBOV/Mak [8], the “possible loss of potency” value was less than 2 fold. Further, the “mi (hill coefficient of drug i applied in combination)” value in the data set with EBOV [9] was 4.043. For the same compound, in the data set with EBOV [4] (ip, 12 mg/kg), the “Survival (%)” value was 100% and 100 ^3%; the survival is listed as 90-100%. Besides, in the data set with MARV, the “Survival (%)” value is reported as 90 ^4% and the mice protected is given as 80%. In addition, the concentration for half-maximal inhibition (IC50) in the data set with EBOV [1] was roughly 4 µM. In data set [2] (400 mg), the Cmax was 2.43 µM. Moreover, the “Oral LD50” value in [10] is listed as 2069 mg/kg. Also, the “inhibitory activity over time (stability in V8)” value with VSV-EBOV-GPΔ-Luc is “maintained inhibitory activity over 15 days”. Moreover, the tolerability entry in [11] is reported as “well tolerated”. Moreover, in the data set on EBOV/Mak [3], the Hill coefficient is 4.859 and the IC50 was 5.86 µM.
On to `CCN(CC)CCOc1ccc(C(=C(Cl)c2ccccc2)c2ccccc2)cc1` [Clomiphene], for which the protection with EBOV [4] (ip, 12 mg/kg) is 60% and 40%; in the data set on EBOV [4] (po, 21 mg/kg) it was “no mice were protected”. Besides, in data set [2] (50 mg), the Cmax is 0.05 µM.
As to `CC(=O)c1ccc2c(c1)N(CCCN1CCC(CCO)CC1)c1ccccc1S2` [Piperacetazine], the IC50 in the data set on EBOV [7] is 3.3 µM; in the data set with EBOV [1], 5.44 µM; with EBOV/Mak [3], 7.58 µM.
Turning to `CN[C@H]1CC[C@@H](c2ccc(Cl)c(Cl)c2)c2ccccc21` [Sertraline], the MRT came to 11 h in “in vivo [5]” (30 mg/kg) and 5 h in the data set “in vivo [5]” (60 mg/kg). The half-life in “in vivo [5]” (30 mg/kg) and in “in vivo [5]” (60 mg/kg) was 1 h each time. Also, the Cmax in data set [6] was roughly 1.2 µM; in the data set “in vivo [12]”, 0.43 µM; in data set [2] (200 mg) it was 0.54 µM. For the same compound, the “Cmax obtained relative to prediction, fold higher” value in [6] is listed as ~ 1.2 fold. Moreover, in the data set with EBOV [9], the “mi (hill coefficient of drug i applied in combination)” value was 2.736 and 1.996. Further, in the data set on EBOV [4] (ip, 10 mg/kg), the “Survival (%)” value is 70%. Also, in the data set on EBOV/Mak-C05, the protection result is listed as “not effective; also recorded: did not protect macaques”. For the same compound, in data set [10], the “Oral LD50” value was 336 mg/kg. For the same compound, the predicted survival with EBOV [13] was ~ 35%. For the same compound, the tolerability result in data set [11] is reported as “well tolerated”. Also, in the data set on EBOV/Mak [3], the Hill coefficient was 1.628.
As for `CN(C)CCOc1ccc(/C(=C(/CCCl)c2ccccc2)c2ccccc2)cc1` [Toremifene], the Cmax was 0.498 µg/mL in the data set “in vivo [5]” (100 mg/kg); 1.29 µg/mL in the data set “in vivo [5]” (200 mg/kg); roughly 4.4 µM in [6]; 0.16 µM in the data set “in vivo [12]”; 1.97 µM in data set [2] (60 mg). The MRT in “in vivo [5]” (100 mg/kg) amounted to 6 h; in “in vivo [5]” (200 mg/kg), 16 h. The half-life in the data set “in vivo [5]” (100 mg/kg) is 0.5 h; in “in vivo [5]” (200 mg/kg), 0.2 h. In addition, the IC50 with EBOV [7] was 0.03 µM; in the data set with EBOV [1] it was 1.8 µM; with EBOV/Mak [3] it was 3.64 µM. Further, the “mi (hill coefficient of drug i applied in combination)” value in the data set with EBOV [9] amounted to 1.628. For the same compound, in the data set on EBOV [4] (ip, 60 mg/kg), the “Survival (%)” value is on record as 50%. Also, in data set [14], the “Oral LD50” value is on record as 3000 mg/kg. Besides, the “inhibitory activity over time (stability in V8)” value with VSV-EBOV-GPΔ-Luc is “began to lose activity after ~1 week”. Besides, the “approximated protection of infected mice” value in the data set with EBOV [13] is on record as ~ 50%. Moreover, the estimated survival in the data set on EBOV [13] is reported as ~ 50%. Besides, the predicted survival with EBOV [13] is on record as ~ 7%. In data set [11], the tolerability entry is recorded as “well tolerated”. The Hill coefficient in the data set with EBOV/Mak [3] is 3.057.
